Two compounds from patent US12479886B2, “Inhibitors of IL-15 and their use in treating autoimmune/inflammatory disorders” (University of Houston System, priority 2019, dated 2025) can be followed below.

Assay [1] relates to IL-15. As to the kind of experiment: CTLL-2 proliferation assay (WST-1). It counts as cell-based, murine. As for the experimental part: FIGS. 7A-C. IFRA3Q1 inhibits the IL-15 activity. To determine if IFRA3 and its derivatives can regulate the function of IL-15, the inventors performed CTLL-2 proliferation assay. The proliferation of murine T cell line CTLL-2 depends on the presence and activity of IL-15. CTLL-2 cells were seeded into 96-well plates and treated with IL-15 in the presence or absence of IFRA3D1, IFRA3T1, or IFRA3Q1 at indicated concentrations for 72 hours. CTLL-2 cell proliferation was measured by WST-1 assay.
To determine if IFRA3 and its derivatives can regulate the function of IL-15, the inventors performed CTLL-2 proliferation assay. The proliferation of murine T cell line CTLL-2 depends on the presence and activity of IL-15. CTLL-2 cells were seeded into 96-well plates and treated with IL-15 in the presence or absence of IFRA3D1, IFRA3T1, or IFRA3Q1 at indicated concentrations for 72 hours. CTLL-2 cell proliferation was measured by WST-1 assay. […] IFRA3 and its derivatives had no effects on cell proliferation by themselves.
A general note: Formazan colour is commonly taken as a measure of viable cells.

Assay [2] concerns the target T1, IL-15 Rα (Homo sapiens, UniProt Q13261).
T1 construct: Cell lysates from IL-15RA positive HeLa cells (expressing IL15RA) or IL-15RA negative HeLa cells (transfected with IL15RA siRNA to knock down IL15RA); endogenous in cells; host or cells: HeLa
As to the kind of experiment: on-bead two-color (OBTC) screening and validation with IL-15Rα expressing and non-expressing HeLa cells. It counts as cell-based. On the procedure:
FIGS. 1A-C. Discovery of the IL-15 receptor a subunit-binding compound IFRA3 through OBTC screening of a peptoid library. To identify compounds that can bind to IL-15 receptor, the inventors performed an on-bead two-color (OBTC) screening experiment. HeLa cells expressing IL-15 Rα were stained with red Qdot® […] nanocrystals and HeLa cells not expressing IL-15 Rα were stained with green Qdot® […] nanocrystals. One million green cells and one million red cells were mixed and incubated for 1 hour with 50,000 peptoid compound library beads containing one-compound on one bead at 23° C. Beads that bind to only red cells but not green cells were isolated under fluorescent microscope and the compound attached to the bead was identified by mass spectrometry. (FIG. 1A) Illustration of the OBTC screening mechanism. (FIG. 1B) One example of the bead that binds only the red cells. (FIG. 1C) The chemical structure of IFRA3, one of the three hits discovered in this screening.
FIG. 3. Validation of the binding of IFRA3 to IL-15 receptor a subunit using OBTC. The compound IFRA3 was resynthesized on the beads and were incubated with IL-15 RA expressing HeLa cells (red stained) and IL-15RA negative HeLa cells (green stained) individually as well as 1:1 mixture of red and green cells. […]

The target in assay [3] is T2, IL-15 receptor a (IL15RA) (Homo sapiens, UniProt Q13261).
T2 construct: Cell lysates from IL-15RA positive HeLa cells (expressing IL15RA) or IL-15RA negative HeLa cells (transfected with IL15RA siRNA to knock down IL15RA); endogenous in cells; host or cells: HeLa
T2 sequence (Q13261 31-267): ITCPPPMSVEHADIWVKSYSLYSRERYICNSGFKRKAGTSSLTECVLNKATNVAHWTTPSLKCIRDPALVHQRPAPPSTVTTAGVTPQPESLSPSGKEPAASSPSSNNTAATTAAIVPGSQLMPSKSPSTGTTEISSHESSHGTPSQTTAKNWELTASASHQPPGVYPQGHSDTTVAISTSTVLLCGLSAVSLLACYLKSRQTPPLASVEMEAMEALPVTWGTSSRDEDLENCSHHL
Nature of the assay: in vitro pull-down assay with peptoid-conjugated beads and HeLa cell lysates, Coomassie staining and western blot. Format: binding. The following applies: beads conjugated with compound, 4° C. overnight; band identity confirmed by western blot. As for the experimental part:
FIGS. 2A-B. Confirmation of the binding of IFRA3 to IL-15 receptor a subunit. […] Cell lysates from IL-15RA positive HeLa cells (expressing IL15RA) or IL-15RA negative HeLa cells (transfected with IL15RA siRNA to knock down IL15RA) were incubated with beads conjugated with IFRA1, or IFRA2, or IFRA3 at 4° C. overnight. The beads were then washed with RIPA buffer for 3 times, and the binding proteins were eluted with 1% SDS. The yielded lysates were then applied onto 12% SDS-PAGE gel and subjected to Coomassie blue staining. (FIG. 2B) Protein in the gel was transferred to membrane and identified by western blotting analysis with antibody against IL-15RA.
Cell lysates from IL-15RA positive HeLa cells (expressing IL15RA) or IL-15RA negative HeLa cells (transfected with IL15RA siRNA to knock down IL15RA) were incubated with beads conjugated with IFRA1, or IFRA2, or IFRA3 at 4° C. overnight. The beads were then washed with RIPA buffer for 3 times, and the binding proteins were eluted with 1% SDS. The yielded lysates were then applied onto 12% SDS-PAGE gel and subjected to Coomassie blue staining. Protein in the gel was transferred to membrane and identified by western blotting analysis with antibody against IL-15RA. […] Western blot results confirmed the identity of the protein band as IL15RA. Thus, the data support that IFRA3 can bind to IL15RA.
Background: In western blotting, separated proteins are transferred to a membrane and probed.

Bridge positions count the residues as written; N and C are the ends. Square brackets hold non-standard residues; d marks the D form. Peptide text beside a SMILES is read from it. I, II: the chains in the order shown. N(4-MeOBn)Gly = COc1ccc(CNCC(=O)O)cc1; Nleu = CC(C)CNCC(=O)O; Nlys = NCCCCNCC(=O)O; Nme = COCCNCC(=O)O

T1 sequence (Q13261 31-267): as above

On to `COCCN(CC(=O)NC(CCCCN)C(=O)NC(CCSC)C(N)=O)C(=O)CN(CCCCN)C(=O)CN(CCCCN)C(=O)CN(CCOC)C(=O)CN(Cc1ccc(OC)cc1)C(=O)CNCC(C)C` (centres unmarked) [IFRA3] (H-[Nleu][N(4-MeOBn)Gly][Nme][Nlys][Nlys][Nme]KM-NH2; configuration not given here), for which the “effect on cell proliferation by themselves” value in assay [1] (CTLL-2 cells, compound alone without IL-15) was “no effects”. Also, the “binding of cells to beads with resynthesized compound (OBTC validation)” value in assay [2] (IL-15RA expressing (red) and negative (green) HeLa cells, individually and as 1:1 mixture) was “only red cells bind to the beads, and the green cells do not bind”. Besides, the “binding to IL-15 receptor subunit a in OBTC screen (hit)” value in assay [2] (peptoid library beads, red IL-15Rα+ and green IL-15Rα- HeLa cells, 1 hour, 23° C.) was “binds to the IL-15 receptor subunit a”. In assay [3], the “pull-down of IL15RA from cell lysates” value is given as “can pull down a protein band corresponding to the size of IL15RA”.

For `COCCN(CC(=O)NC(CCCCN)C(=O)NC(CCSC)C(=O)NCCCCC(NC(=O)C(CCCCNC(=O)C(CCSC)NC(=O)C(CCCCN)NC(=O)CN(CCOC)C(=O)CN(CCCCN)C(=O)CN(CCCCN)C(=O)CN(CCOC)C(=O)CN(Cc1ccc(OC)cc1)C(=O)CNCC(C)C)NC(=O)C(CCSC)NC(=O)C(CCCCN)NC(=O)CN(CCOC)C(=O)CN(CCCCN)C(=O)CN(CCCCN)C(=O)CN(CCOC)C(=O)CN(Cc1ccc(OC)cc1)C(=O)CNCC(C)C)C(N)=O)C(=O)CN(CCCCN)C(=O)CN(CCCCN)C(=O)CN(CCOC)C(=O)CN(Cc1ccc(OC)cc1)C(=O)CNCC(C)C` (centres unmarked) [IFRA3T1] (I: H-[Nleu][N(4-MeOBn)Gly][Nme][Nlys][Nlys][Nme]KMKK-NH2 / II: H-[Nleu][N(4-MeOBn)Gly][Nme][Nlys][Nlys][Nme]KM / III: H-[Nleu][N(4-MeOBn)Gly][Nme][Nlys][Nlys][Nme]KM; amide I:9-II:C, I:10-III:C; configuration not given here), the “inhibition of IL-15-stimulated proliferation of CTLL-2 cells” value in assay [1] (with IL-15, 72 hours, WST-1) is on record as “less effects”.
